In patent publication US20140322151A1, “Use Of Isosorbide Caprylates/Caprates In Deodorants And Antiperspirants” (CLARIANT INTERNATIONAL LTD, priority 2011, published 2014):

Test system: axillary body odor
Test: 48-hour sniff test: reduction in body odor after single application of roll-on deodorant base formulation
Assay type: in vivo, human
Settings: base formulation I
Experimental: To determine the reduction in body odor, the following base formulations for roll-on deodorants were used.
Various substances active against body odor were incorporated into the base formulations, for example as a further constituent of component D. These were the following substances:
To determine the reduction in body odor, the deodorizing action was carried out in the 48-hour sniff test, for which the procedure is as follows:
20 subjects are selected according to the following criteria: • female and male • at least 18 years old • nonsmokers • clinically healthy • readily detectable auxiliary body odor under both armpits
The two armpits of the subjects are preconditioned over several days, i.e. no kind of antiperspirants and deodorants are used and a pH-skin-neutral, unperfumed liquid soap is used.
On the 20 pretreated subjects, in the left or right axilla, after a sing application of 250-300 mg of the base formulation comprising active substances against body odor in the component D, three olfactory experts evaluate the axillary body odor and product scent as to intensity before and after treatment over a total of 48 hours.
The opposite axilla is not treated and serves as a standard for determining the relative intensity decrease in axillary body odor compared to the axilla which has been treated with the base formulation comprising active substances against body odor in component D.
As well as the starting value directly before the single application (after 0 hours) and the end value 48 hours after the single application, the intensity of the axillary body odor and product scent is also evaluated after 24 hours. The intensity of the body odor or perfume scent was assessed by the three olfactory experts according to the following scale: • 1=not detectable • 2=slightly detectable • 3=detectable • 4=strongly detectable • 5=very strongly detectable
Comparing the intensities of the body odor (or perfume scent) from the treated axilla and the untreated axilla gives, by virtue of the formula below, the relative intensity decrease in axillary body odor as a result of a single application of 250-300 mg of the base formulation comprising active substances against body odor in component D.

Structure (SMILES)	Result after 24 hours (relative intensity decrease in axillary body odor) (24 hours, 0.1% by weight, 5% by weight propylene glycol as solubilizer) [%]	Result after 48 hours (relative intensity decrease in axillary body odor) (48 hours, 0.1% by weight, 5% by weight propylene glycol as solubilizer) [%]	Result after 24 hours (relative intensity decrease in axillary body odor) (24 hours after single application, 7.6% by weight) [%]	Result after 48 hours (relative intensity decrease in axillary body odor) (48 hours after single application, 7.6% by weight) [%]
Cc1cc(CC(C)CC(C)(C)C)n(O)c(=O)c1 (stereo not shown) [Piroctonol]	15	10	–	–
CCCCCCC(O)CO (stereo not shown) [octanediol]	–	–	18	13
